Assay results reported in EP0891770B1, “Killer T cell activator and use thereof” (Nitto Denko Corporation, priority 1997, dated 1999).
Like-named read-outs stand apart in the source and are kept apart here. Where a SMILES comes first, the peptide text is derived from it.

Experiments:
[1] = system: antigenic peptide-pulsed L^kb cells
[2] = system: HSV peptide-pulsed L cells; settings: peptide given as inoculated pressure sensitive adhesive tape
Procedure: At 1 week after the peptide application, cervical lymph node was removed, and lymphocytes were cultured for 2 days in vitro in an RPMI1640 medium containing a slight amount (5 U/ml) of IL-2. The L^kb cells labeled with ^51Cr were pulsed with antigenic peptide (5 µmol) and L^tk- cells were used as a control. Cytotoxicity assay was performed using cultured lymphocytes as effector cells, and ^51Cr-labeled and antigenic peptide-pulsed L^kb cells and L^tk- cells as target cells. […] The antigenic peptides used were the three kinds recited in Reference Example 1.

Row | Structure (SMILES) | cytotoxic activity of cervical lymphocyte-derived effector cells (antigen specificity) [1] | Cytotoxic activity specific to HSV peptide-pulsed L cells (%) ([2]; time after stripping 12) | Cytotoxic activity specific to HSV peptide-pulsed L cells (%) ([2]; time after stripping 24) | Cytotoxic activity specific to HSV peptide-pulsed L cells (%) ([2]; time after stripping 48) | Cytotoxic activity specific to HSV peptide-pulsed L cells (%) ([2]; time after stripping: untreated)
1 | CC[C@H](C)[C@H](NC(=O)[C@H](CO)NC(=O)[C@@H](N)CO)C(=O)N[C@@H](CCC(=O)O)C(=O)N[C@@H](Cc1ccccc1)C(=O)N[C@@H](C)C(=O)N[C@@H](CCCNC(=N)N)C(=O)N[C@@H](CC(C)C)C(=O)O [HSV gp B, Ser Ser Ile Glu Phe Ala Arg Leu] (H-SSIEFARL-OH) | recognized and certainly eradicated the cells presenting an H-2K^b - HSV gp B peptide complex alone | 45.3 ± 1.5% | 37.0 ± 1.1% | 3.5 ± 0.6% | 0.2 ± 0.8%
2 | CC[C@H](C)[C@H](NC(=O)[C@@H](NC(=O)[C@@H](N)CO)[C@@H](C)CC)C(=O)N[C@@H](CC(N)=O)C(=O)N[C@@H](Cc1ccccc1)C(=O)N[C@@H](CCC(=O)O)C(=O)N[C@@H](CCCCN)C(=O)N[C@@H](CC(C)C)C(=O)O [Ovalbumin, Ser Ile Ile Asn Phe Glu Lys Leu] | selectively damaged the cells presenting respective inoculated antigenic peptides |  |  |  | 
3 | CC(C)C[C@H](NC(=O)CNC(=O)[C@H](CCC(N)=O)NC(=O)[C@H](Cc1ccc(O)cc1)NC(=O)[C@@H](NC(=O)[C@H](Cc1ccc(O)cc1)NC(=O)CNC(=O)[C@@H](N)CCCNC(=N)N)C(C)C)C(=O)O [VSV NP, Arg Gly Tyr Val Tyr Gln Gly Leu] | selectively damaged the cells presenting respective inoculated antigenic peptides |  |  |  | 
